System: Mutz DCs with T-cells
Experiment: T-cell activation by sensitized dendritic cells in microfluidic well-trap device (Fluo-4 calcium flux, time lapse microscopy)
Format: cell-based
Details: Mutz DCs sensitized with PPD, Fluo-4 labeled T-cells in the chamber, time lapse microscopy (FIG. 5)
Description: T cells are isolated from the peripheral blood mononuclear fraction by positive selection using CD3 microbeads and magnetic cell separator (Miltenyi Biotec Inc., Auburn, Calif.), following the manufacturer's instructions. The T cells are frozen in liquid nitrogen and thawed prior to use. The T-cells are labeled with a calcium sensitive fluorescent dye, Fluo-4. The present method measures the increase in calcium flux into T-cells, as they form immunological synapses with dendritic cells. For labeling, the T cells are suspended at a density of 1-2×10^6 cells/ml in the medium supplemented with the fluo4 dye diluted to a final concentration of 1 μM. The cells are incubated at 37° C. for 20 minutes, and then washed twice to remove the remaining dye in the medium. The labeled T cells are suspended in the fresh medium prior to loading in the microdevice.
The device is first primed with PBS. Any bubbles, remaining from the priming process, are removed by placing the device in a vacuum dessicater for 1-2 minutes. Once primed, the device is flushed with media. Dendritic cells (DCs) are introduced into the device from inlet 1, by means of a 2.5 μL pipette. Additional head is provided by topping off the pipette tip attached to the device to the required level. The set-screw valves may be employed to adjust the flow to allow the cells to slow down enough so they can settle. […]

With `Nc1ccc(N)cc1` [PPD] the “T-cell clustering around dendritic cells and fluorescence (calcium flux) over time” value was “Clustering accompanied by increase in fluorescence is observed”.
